Experiment [1] concerns Staphylococcus aureus ATCC BAA-976. The experiment is described as follows: MIC, broth microdilution, MDR/BPSA reference strain. It is filed as cell-based. The source says: (§1) These strains included susceptible, multidrug-resistant, and biofilm-producing strains of S. epidermidis and S. aureus (MSSE, MDR/BPSE, and MDR/BPSA, respectively). The cornerstone antibiotic linezolid served as a positive control (Table 1). The impact of structural modifications at the aryloxy fragment and the aromatic moiety bound to the propyl linker on the inhibitory activity was initially investigated. […] Further optimization focused on evaluating the impact of the type of substituent and its position on the arylsulfonamide fragment’s activity.
(§2) 2 Biological assay protocols
(§3) Microbiological tests were carried out under aseptic conditions in a laminar chamber of the 2nd […]
(§4) (BioTectum 1.2, Alchem Poland). The assessment of antimicrobial activity was carried out for final compounds in the form of free bases, soluble in DMSO (Merck, Germany), at the initial […]
(§5) concentration of 1 mg/mL. […]
(§6) were provided by Cayman Chemical, USA.
(§7) The activity of all newly synthesized compounds was tested in vitro on a panel of selected reference strains from the American Type Culture Collection (ATCC) of Gram-positive […]
(§8) 2.2 Effect of evaluated compounds on planktonic cells
(§9) The susceptibility of three reference bacterial strains (Staphylococcus epidermidis ATCC […]
(§10) Table S1) and 81 clinical MDR S. epidermidis (Table S2) to the tested compounds was assessed by determining the MIC value (Minimal Inhibitory Concentration) by microdilution in a liquid medium in 96-well flat-bottom cell culture plates (Nest Biotechnology Scientific, USA). The antibacterial properties of the compo unds were tested in the concentration range from 50 µg/mL to 0.1 µg/mL by making a series of double dilutions of the compound in liquid Mueller -Hinton II Broth Cation Adjusted (MHB II, BBL TM, USA) according to the European Committee on […]
(§11) Antimicrobial Susceptibility Testing guidelines (EUCAST).2,3 The determinations were performed twice. The MIC50 and MIC90 values were determined for each of the tested
In general terms: In broth dilution the organism is exposed to a series of concentrations in liquid medium.

Experiment [2] deals with Staphylococcus epidermidis ATCC 35984. The experiment is described as follows: MIC, broth microdilution, MDR/BPSE reference strain. It is filed as cell-based. As to conditions: for MIC: Staphylococcus epidermidis, ATCC35984, read-out: MIC MDR/BPSE, Staphylococcus epidermidis ATCC 35984.
Source text: as §1, §2, §3, §4, §5, §6, §7, §8, §9, §10, §11

Experiment [3] relates to Staphylococcus epidermidis ATCC 12228. As to the kind of experiment: MIC, broth microdilution, MSSE reference strain. Format: cell-based.
Source text: as §1, §2, §3, §4, §5, §6, §7, §8, §9, §10, §11

For experiment [4], the system named is H9c2 cells. As to the kind of experiment: Cytotoxicity, MTT assay, cardiomyocytes. Format: cell-based. As to conditions: Rattus norvegicus, 24 h, n = 3. The protocol: (§12) The following cell models were used in the research: rat cardiomyocytes (H9c2 line) and human skin fibroblasts (BJ line). All cell lines used in the work are commercially available and were purchased from ATCC banks (the American Type Culture Collection, Manassas, VI, USA). Cell cultures were carried out in an incubator under standard conditions (37°C, 5% CO 2).
(§13) Culture media (Dulbecco's Modified Eagle's Medium -DMEM (H9c2) and Eagle's Minimum Essential Medium-EMEM (BJ) were supplemented with 10% bovine serum and a 1% mixture of penicillin and streptomycin antibiotics. […]
(§14) doxorubicin (a cytotoxic drug) were used as reference and positive control, respectively. […]
(§15) incubated with studied compound in appropriate concentration for next 24 h. Then MTT solution (5 mg/mL) was transferred into culture medium of incubated cells. After 3 h, once dark crystals of formazan were produced in cells, medium was aspirated and 100 μ L of DMSO was added to dissolve formazan. Absorbance of DMSO solution was read on a multiwell plate reader (Spectra Max iD3, Molecular Devices) at 570 nm. In order to determine viability, absorbance of experimental wells was divided by absorbance of contro l well (not treated) and multiplied by 100 (%). Three separate experiments were performed. IC 50 was calculated using non-linear regression method in OriginPro software. […]

Experiment [5] deals with BJ cells. The experiment is described as follows: Cytotoxicity, MTT assay, skin fibroblasts. It is filed as cell-based, human. As to conditions: Homo sapiens, MTT, 24 h, n = 3. The protocol:
as §12, §13, §14
as §15, with “solution” for “incubated with studied compound in appropriate concentration for next 24 h. Then MTT solution”
(In general: Formazan colour is commonly taken as a measure of viable cells.)

Experiment [6] has as its system Acinetobacter baumannii ATCC 19606. As to the kind of experiment: MIC, Gram-negative reference strain. It is filed as cell-based. As to conditions: Acinetobacter baumannii, ATCC19606. The protocol:
as §2, §3, §4, §5, §6, §7, §8, §9, §10, §11

The test system of experiment [7] is Pseudomonas aeruginosa ATCC 27853. The experiment is described as follows: MIC, Gram-negative reference strain. As to conditions: Pseudomonas aeruginosa, ATCC27853, read-out: MIC P. aeruginosa. Format: cell-based. The protocol:
as §2, §3, §4, §5, §6, §7, §8, §9, §10, §11

In experiment [8] the test system is Escherichia coli ATCC 25922. As to the kind of experiment: MIC, Gram-negative reference strain. As to conditions: Escherichia coli, ATCC25922. Format: cell-based. The protocol: as §2, §3, §4, §5, §6, §7, §8, §9, §10, §11
In experiment [9] the test system is Gram-negative bacteria. The experiment is described as follows: MIC, tested Gram-negative bacteria (hit screening). It is filed as cell-based. The source says: (§16) Despite numerous efforts to ensure sterility and encourage the prudent use of currently available antibiotics, morbidity rates persist at high levels. These findings underscore the pressing need for the development of a novel class of potential antimicrobial agents targeting multidrug-resistant and biofilm-forming S. epidermidis. […] Herein we present the discovery of new aryloxy[1-(thien-2-yl)propyl]piperidines with improved antibacterial activity compared to compound I, evaluated against a spectrum of clinical S. epidermidis isolates (81 strains), including multidrug-resistant and biofilm-forming strains. We also determined their bacteriostatic/bactericidal properties and conducted a real-time analysis of bacterial growth. Finally, we evaluated the ability of the most promising compound, 25, in terms of its activity and safety over mammalian cell lines, to disrupt the staphylococcal cell membranes of clinical S. epidermidis.

Experiment [10] concerns reference susceptible and multidrug-resistant S. epidermidis and S. aureus strains. As to the kind of experiment: MIC, reference S. epidermidis and S. aureus strains (hit screening). Format: cell-based.
Source text: as §16

[11] abbreviates: ATCCBAA976, Staphylococcus aureus ATCC BAA-976, read-out: MIC MDR/BPSA.
[12] abbreviates: ATCC12228, Staphylococcus epidermidis ATCC 12228, read-out: MIC MSSE.
Where [13] appears, read: Staphylococcus aureus, ATCCBAA976, read-out: MIC MDR/BPSA.

Converted amounts (≈) assume the structure as drawn. Like-named read-outs stand apart in the source and are kept apart here. Where only a bound is given, the exact number is not on record here.

For the molecule `O=S(=O)(NC1CCN(CCC(Oc2ccc(C(F)(F)F)cc2)c2cccs2)CC1)c1ccc(Cl)cc1` (stereo not shown) [Compound 23], the figures for the MIC in [1] (setting [11]), in experiment [2] and in [3] (setting [12]) were 6.25 µg/mL (≈ 11.2 µM), 0.2 µg/mL (≈ 0.358 µM) and 12.5 µg/mL (≈ 22.4 µM), respectively.

For the molecule `COc1cccc(S(=O)(=O)NC2CCN(CCC(Oc3ccc(C(F)(F)F)cc3)c3cccs3)CC2)c1` (stereo not shown) [Compound 20], the MIC was 25 µg/mL (≈ 45.1 µM) in experiment [1] (setting [11]), 0.1 µg/mL (≈ 0.18 µM) in [2] and 50 µg/mL (≈ 90.1 µM) in [3] (setting [12]).

As a reminder, the IC50 is the concentration that inhibits the measured activity by half. Low readings indicate greater potency, high ones weaker potency. Consider `COc1cccc2c1C(=O)c1c(O)c3c(c(O)c1C2=O)C[C@@](O)(C(=O)CO)C[C@@H]3O[C@H]1C[C@H](N)[C@H](O)[C@H](C)O1` [doxorubicin, reference compound], for which the IC50 in experiment [4] and in experiment [5] was 0.39 µg/mL (≈ 0.718 µM) in each case.

In the case of `O=S(=O)(NC1CCN(CCC(Oc2cccc(C(F)(F)F)c2)c2cccs2)CC1)c1cccc(Cl)c1` (stereo not shown) [Compound 13], the MIC in experiment [1] (setting [13]) was 3.12 µg/mL (≈ 5.59 µM); in [2] it was 3.12 µg/mL (≈ 5.59 µM); in experiment [3] (ATCC12228, read-out: MIC MSSE), 3.12 µg/mL (≈ 5.59 µM).

For the molecule `O=C(Nc1ccc(F)cc1)NC1CCN(CCC(Oc2ccc(C(F)(F)F)cc2)c2cccs2)CC1` (stereo not shown) [Compound 26], the MIC in [2] is not below 6.25 µg/mL; in experiment [3] (setting [12]), 50 µg/mL (≈ 95.9 µM).

Take `Cc1cccc(S(=O)(=O)NC2CCN(CCC(Oc3ccc(C(F)(F)F)cc3)c3cccs3)CC2)c1` (stereo not shown) [Compound 19]: the MIC in experiment [1] (setting [11]) came to 50 µg/mL (≈ 92.8 µM); in experiment [2] it was 0.2 µg/mL (≈ 0.371 µM); in experiment [3] (setting [12]), 50 µg/mL (≈ 92.8 µM).

As to `O=C(Nc1ccccc1)NC1CCN(CCC(Oc2ccc(C(F)(F)F)cc2)c2cccs2)CC1` (stereo not shown) [Compound 24], the MIC in [1] (setting [13]) turned out to be 6.25 µg/mL (≈ 12.4 µM); in experiment [2] it was 6.25 µg/mL (≈ 12.4 µM); in experiment [3] (ATCC12228, read-out: MIC MSSE) it was 6.25 µg/mL (≈ 12.4 µM).

As for `O=S(=O)(NC1CCN(CCC(Oc2ccc(C(F)(F)F)cc2)c2cccs2)CC1)c1ccccc1Cl` (stereo not shown) [Compound 16], the MIC in experiment [1] (setting [11]) was 50 µg/mL (≈ 89.4 µM); in experiment [2], 6.25 µg/mL (≈ 11.2 µM); in [3] (setting [12]), 50 µg/mL (≈ 89.4 µM).

`O=S(=O)(NC1CCN(CCC(Oc2ccc(C(F)(F)F)cc2)c2cccs2)CC1)c1ccccc1` (stereo not shown) [Compound 15]: the MIC came to 12.5 µg/mL (≈ 23.8 µM) in experiment [1] (setting [11]), 6.25 µg/mL (≈ 11.9 µM) in experiment [2] and 12.5 µg/mL (≈ 23.8 µM) in [3] (setting [12]).

As for `O=S(=O)(NC1CCN(CCC(Oc2ccc(C(F)(F)F)cc2)c2cccs2)CC1)c1cccc(F)c1` (stereo not shown) [Compound 17], the figures for the MIC in [1] (setting [13]), in experiment [2] and in experiment [3] (setting [12]) were 6.25 µg/mL (≈ 11.5 µM), 6.25 µg/mL (≈ 11.5 µM) and 12.5 µg/mL (≈ 23 µM), respectively.

On to `O=S(=O)(NC1CCN(CCC(Oc2cccc(C(F)(F)F)c2)c2ccccc2)CC1)c1cccc(Cl)c1` (stereo not shown) [I], for which the MIC was 3.12 µg/mL (≈ 5.65 µM) in [1] (setting [13]); 3.12 µg/mL (≈ 5.65 µM) in experiment [2]; 50 µg/mL (≈ 90.4 µM) in experiment [6]; 50 µg/mL (≈ 90.4 µM) in experiment [7]; 50 µg/mL (≈ 90.4 µM) in [8]; 3.12 µg/mL (≈ 5.65 µM) in experiment [3] (ATCC12228, read-out: MIC MSSE). The MIC in experiment [9] (tested Gram-negative bacteria) was not below 25 µg/mL; in experiment [10], 3.12 to 6.25 µg/mL (≈ 5.65 to 11.3 µM). Moreover, in [2] (Staphylococcus epidermidis ATCC 35984), the “MIC MDR/BPSE” value turned out to be 6.25 µg/mL (≈ 11.3 µM). The “activity towards Gram-negative bacteria” value in [9] is reported as “Not active”.

On to `O=S(=O)(NC1CCN(CCC(Oc2ccc(C(F)(F)F)cc2)c2cccs2)CC1)c1ccc(F)cc1` (stereo not shown) [Compound 22], for which the MIC in experiment [1] (setting [11]) stood at 6.25 µg/mL (≈ 11.5 µM); in experiment [2] it was 1.6 µg/mL (≈ 2.95 µM); in [3] (setting [12]), 6.25 µg/mL (≈ 11.5 µM).

`O=C(Nc1ccc(Cl)cc1)NC1CCN(CCC(Oc2ccc(C(F)(F)F)cc2)c2cccs2)CC1` (stereo not shown) [Compound 27]: the MIC in [2] is not below 6.25 µg/mL; in [3] (setting [12]) it was 50 µg/mL (≈ 92.9 µM).

For the origin of these results see paper PMC10945555, “Improving Activity of New Arylurea Agents against Multidrug-Resistant and Biofilm-Producing Staphylococcus epidermidis” (ACS Medicinal Chemistry Letters, 2024).
